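Where inhibition never reached the appropriate level, the endpoint shown equals the highest concentration tested. Otherwise, values were interpolated linearly from a five-concentration, 48-hour dose response in 96-well plates. GI50: concentration for 50% inhibition of growth. TGI: total growth inhibition.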
What was measured:
Experiment in all cases: DTP human tumour cell line panel, 48 h
[1] = tested on: HCT-15 colon
[2] = tested on: SK-MEL-5 melanoma
[3] = tested on: SK-OV-3 ovarian
[4] = tested on: SF-295 CNS
[5] = tested on: IGROV1 ovarian
[6] = tested on: HT29 colon
[7] = tested on: OVCAR-3 ovarian
[8] = tested on: SK-MEL-2 melanoma
[9] = tested on: K-562 leukemia
[10] = tested on: SF-539 CNS

SMILES	GI50 [1] [µM]	TGI [1] [µM]	GI50 [2] [µM]	TGI [2] [µM]	GI50 [3] [µM]	TGI [3] [µM]	GI50 [4] [µM]	TGI [4] [µM]	GI50 [5] [µM]	TGI [5] [µM]	GI50 [6] [µM]	TGI [6] [µM]	GI50 [7] [µM]	TGI [7] [µM]	GI50 [8] [µM]	TGI [8] [µM]	GI50 [9] [µM]	TGI [9] [µM]	GI50 [10] [µM]	TGI [10] [µM]
Cc1c(C)c2ccc(OC/C=C3\CCC(=O)O3)cc2oc1=O	5.4	20.2	17.4	32.8	26.5	93.1	20.5	45	14.2	28.9	16.6	35.3	15.8	30.3	14.2	30.7	29.1	88.7	16.1	31.7
O=c1oc2ccc(Cl)cc2c(=O)n1-c1ccc(I)cc1F	0.231	6.74	0.095	0.279	0.451	4.31	1.03	2.79	0.19	> 42.3	3.41	22.6	0.177	13.3	0.116	0.945	0.176	> 100	0.231	2.69
CC(C)[C@@H](COC(C)(C)C)N=CN1CCc2c([nH]c3ccccc23)C1		> 100		> 100		> 100		> 100		> 100		> 100		> 100		> 100		> 100		> 100
O=c1[nH]cnc2c(C3OC(CO)C(O)C3O)scc12 (centres undefined)	60	> 100	> 100	> 100	> 100	> 100	> 100	> 100	73.5	> 100	> 100	> 100	> 100	> 100	44.8	> 100	31.5	> 100	> 100	> 100
CC(=O)OC1C2(CC3N4C(=O)C5(CO)SSC4(CC31O)C(=O)N5C)OC(C)C(C)(C)C2=O (centres undefined)	< 0.01	< 0.0197	0.0389	0.0947	0.0745	0.454	1.96	3.94	0.117	0.577	< 0.01		1.32	3.01	0.339	1.79	< 0.0288	1.91	0.139	0.215
COc1ccccc1-c1c(C)nn2c(NCc3ccccn3)cc(C)nc12	9.76	> 50	14.8	49.6	> 50	> 50	21.2	> 50	> 37.5	> 50	7.31	> 50	2.58	> 50	> 50	> 50	5.85	> 50	44.3	> 50

Source: PubChem BioAssay (NCI)
